Tested on: subclinical sun damage
Assay: Follow-up treatments of one patient on a substantially annual basis
Assay type: in vivo, human
Settings: each time after the first treatment
Text: In order to assess the scope of original treatment, one patient received further treatments over a substantially annual basis. In Table 4, treatment #, days since last treatment, and observations are provided. […] From this, it was concluded that all of the subclinical sun damage treated most likely resolved during each cycle of therapy. Subsequent milder reactions appear to have treated new subclinical sun damage or possible recurrent sun damage. […] The freckle also resolved itself after follow-up treatment #1. During follow-up treatment #2, FIG. 4C, there was no sign of the freckle. That is, where there may not have been a response during an earlier treatment, a subsequent treatment invoked a response. Moreover, responses to successive treatments, if any, were not as severe as the initial response. […] It is also concluded that annual treatment aids in preventing actinic keratoses from forming as well as eliminates any new sun damage.

O=c1[nH]cc(F)c(=O)[nH]1 [5-FU, 5-fluorouracil]
response in follow-up treatments: mild erythema
